In patent US10030016B2 (Sunesis Pharmaceuticals, Inc., priority 2009, dated 2018) one finds EC50 data, which are given here for 23 molecules.

pEC50: −log10 of the molar value. Structures can show the parent of a compound that is named as a salt.

The subject of the first test is phospho-akt (Thr308) in PC-3 cells. The test can be described thus: Inhibition of phospho-akt (Thr308) in PC-3 cells, MSD phospho-akt 308 ELISA kit. It is filed as cell-based. Conditions: Homo sapiens; inhibition of P308 Akt in PC-3 cells using MSD, 2 hours, no serum; read-out: EC50. As for the experimental part: PC-3 cells were harvested by trypsin and counted. Cells were plated in coated 96-well flat bottom plates (plate 15,000 cells/well in 100 ul growth media (10% FBS, 1× pen-strep) an place in an incubator overnight.
Subject inhibitors were stocked at 50 mM, then diluted to 30 mM (4.8 μl cpd plus […] DMSO) in 100% DMSO. Three-fold dilutions were performed from 30 mM stock. (4 μl into 8 ul 100% DMSO). Aliquots of 1.0 μl of inhibitor solution were transferred into SF Medium (using deep well block).
Control wells were prepared as follows. For DMSO high controls, 1.0 μl of 100% DMSO was added into 1.0 ml SF. For low controls for PC-3 cells, 5 μM of Wortmannin (10 μl of 1 mM Wortmannin stock was added into 2 ml SF Medium. The supernatant media was removed and the plate was blotted. 100 μl of controls/media or compound/media were added to cells and placed in incubator for 2 hours. The supernatant media was removed and the plate was blotted. 55 μl of the MSD complete lysis buffer was added (10 mls Tris Lysis buffer, 200 ul protease inhibitor, 100 ul phosphatase inhibitor 1, and 100 ul phosphatase inhibitor II). The plate was placed on a plate shaker for 60 mins at 4 deg.
MSD plates were blocked for 1 hour by adding 150 μl of Blocking Solution (3% BSA) to each well. The MSD plates were washed 4× with TBST, and 50 μl lysates were transferred to MSD plate and place on plate shaker shake at 4 degrees O/N, light shaking (speed 3.5). The plate was washed 4× with TBST.
25 μl of Ab detection solution was added to each well. The plate was sealed and incubated 1 hr RT, light shaking (speed 3.5). The plate was washed 4 times with TBST. 150 μl of Read Buffer was added (5 mls 4×MSD Read Buffer+15 mls water). Finally the plate was read immediately on the MSD plate reader.
By pEC50 is commonly meant the EC50 on a negative log10 scale, so that one unit is a factor of ten. For `C[C@H](NC(=O)c1nc(C#N)cnc1NCC#Cc1ccc2nc(N)ncc2c1)c1ccc(F)c(F)c1` [Example 258, (S)-3-(3-(2-aminoquinazolin-6-yl)prop-2-ynylamino)-6-cyano-N-(1-(3,4-difluorophenyl)ethyl) pyrazine-2-carboxamide], the pEC50 is above 6.00.

In the case of `Cc1nc(N)cnc1-c1ccc(CNc2ncc(C#N)cc2C(=O)N[C@@H](C)c2ccc(F)cc2)cc1` [Example 107, (S)-2-(4-(5-amino-3-methylpyrazin-2-yl)benzylamino)-5-cyano-N-(1-(4-fluorophenyl)ethyl)nicotinamide], the pEC50 is below 5.00.

With `N#Cc1cc(F)ccc1NC(=O)c1cc(C(F)(F)F)cnc1NCc1ccc(-c2cnc3[nH]nc(N)c3c2)cc1` [Example 418, 2-(4-(3-amino-1H-pyrazolo [3,4-b]pyridin-5-yl)benzylamino)-N-(2-cyano-4-fluorophenyl)-5-(trifluoromethyl)nicotinamide], the pEC50 is 5.00 to 6.00.

Regarding `C[C@H](NC(=O)c1cc(C#N)cnc1NCc1ccc(-c2cnc3[nH]nc(N)c3c2)cc1F)c1ccc(F)cc1` [Example 407, 2-[4-(3-Amino-1H-pyrazolo [3,4-b]pyridin-5-yl)-2-fluoro-benzylamino]-5-cyano-N-[(S)-1-(4-fluoro-phenyl)-ethyl]-nicotinamide], the pEC50 was above 6.00.

In the case of `C[C@H](NC(=O)c1nc(C(F)(F)F)cnc1N[C@H](C)c1ccc(-c2cnc3[nH]nc(N)c3c2)cc1)c1ccc(F)c(F)c1` [Example 427, 3-((R)-1-(4-(3-amino-1H-pyrazolo[3,4-b]pyridin-5-yl)phenyl)ethylamino)-N-((S)-1-(3,4-difluorophenyl)ethyl)-6-(trifluoromethyl) pyrazine-2-carboxamide], the pEC50 is 5.00 to 6.00.

As for `N#Cc1cnc(NCc2ccc(-c3cnc4[nH]ncc4c3)cc2)c(C(=O)NCc2ccc(F)c(F)c2)c1` [Example 396, 5-Cyano-N-(3,4-difluoro-benzyl)-2-[4-(1H-pyrazolo[3,4-b]pyridin-5-yl)-benzylamino]-nicotinamide], the pEC50 was above 6.00.

Consider `C[C@H](NC(=O)c1nc(C#N)cnc1N[C@H](C)c1ccc(-c2cnc3[nH]nc(N)c3c2)nc1)c1ccc(F)c(F)c1` [Example 415, 3-{(R)-1-[6-(3-Amino-1H-pyrazolo[3,4-b]pyridin-5-yl)-pyridin-3-yl]-ethylamino}-6-cyano-pyrazine-2-carboxylic acid [(S)-1-(3,4-difluoro-phenyl)-ethyl]-amide], for which the pEC50 is above 6.00.

For `C[C@H](NC(=O)c1cc(C#N)cnc1NCc1ccc(-c2cnc3[nH]c(=O)[nH]c3c2)c(F)c1)c1ccc(F)cc1` [Example 127, (S)-5-cyano-2-(3-fluoro-4-(2-oxo-2,3-dihydro-1H-imidazo[4,5-b]pyridin-6-yl)benzyl-amino)-N-(1-(4-fluorophenyl)ethyl) nicotinamide], the pEC50 was above 6.00.

Take `C[C@H](NC(=O)c1cc(C#N)cnc1NCc1ccc(-c2cnc3[nH]nc(N)c3c2)cc1Cl)c1ccc(F)cc1` [Example 406, 2-[4-(3-Amino-1H-pyrazolo [3,4-b]pyridin-5-yl)-2-chloro-benzylamino]-5-cyano-N-[(S)-1-(4-fluoro-phenyl)-ethyl]-nicotinamide]: the pEC50 was 5.00 to 6.00.

Consider `Nc1ncc(-c2ccc(CNc3ncc(C(F)(F)F)cc3C(=O)Nc3ccc(F)cc3)cc2)nc1CO` [Example 242, 2-[4-(5-Amino-6-hydroxy-methyl-pyrazin-2-yl)-benzylamino]-N-(4-fluoro-phenyl)-5-trifluoromethyl-nicotinamide], for which the pEC50 is above 6.00.

`C[C@H](NC(=O)c1cc(C#N)cnc1N[C@H](C)c1ccc(-c2cnc3[nH]nc(N)c3c2)nc1)c1ccc(F)cc1` [Example 416, 2-{(R)-1-[6-(3-Amino-1H-pyrazolo[3,4-b]pyridin-5-yl)-pyridin-3-yl]-ethylamino}-5-cyano-N-[(S)-1-(4-fluoro-phenyl)-ethyl]-nicotinamide]: the pEC50 was above 6.00.

Turning to `C[C@H](NC(=O)c1nc(C#N)cnc1NCc1ccc(-c2cnc(N)c(CO)n2)cc1)c1ccc(F)c(F)c1` [Example 241, 3-[4-(5-Amino-6-hydroxy-methyl-pyrazin-2-yl)-benzylamino]-6-cyano-pyrazine-2-carboxylic acid [(S)-1-(3,4-difluoro-phenyl)-ethyl]-amide], the pEC50 is above 6.00.

For the molecule `C[C@H](NC(=O)c1cc(C#N)cnc1NCc1ccc(-c2cnc3[nH]c(=O)n(C)c3c2)cc1)c1ccc(F)cc1` [Example 140, (S)-5-cyano-N-(1-(4-fluorophenyl)ethyl)-2-(4-(1-methyl-2-oxo-2,3-dihydro-1H-imidazo [4,5-b]pyridin-6-yl)benzylamino)nicotinamide], the pEC50 is above 6.00.

For the molecule `C[C@H](NC(=O)c1cc(C#N)cnc1NCC#Cc1ccc2nc(N)ncc2c1)c1ccc(F)cc1` [Example 257, (S)-2-(3-(2-aminoquinazolin-6-yl)prop-2-ynylamino)-5-cyano-N-(1-(4-fluorophenyl)ethyl)nicotinamide], the pEC50 is above 6.00.

For the molecule `C[C@H](NC(=O)c1nc(C(F)(F)F)cnc1NCc1ccc(-c2cnc3[nH]nc(N)c3c2)cc1)c1ccc(F)c(F)c1` [Example 428, (S)-3-(4-(3-amino-1H-pyrazolo[3,4-b]pyridin-5-yl)benzylamino)-N-(1-(3,4-difluorophenyl)ethyl)-6-(trifluoromethyl) pyrazine-2-carboxamide], the pEC50 was above 6.00.

Still in this test, the particulars now being: Homo sapiens; inhibition of P308 Akt in PC-3 cells, 2 hours, no serum, MSD; read-out: EC50.
On to `CCc1cnc(NCc2ccc(-c3ccc4ncnc(N)c4c3)s2)c(C(=O)NCc2ccc(F)c(F)c2)c1` [Ex. 8.11, 2-({[5-(4-aminoquinazolin-6-yl)thiophen-2-yl]methyl}amino)-N-(3,4-difluorobenzyl)-5-ethylpyridine-3-carboxamide], for which the pEC50 is above 6.00.

With `C[C@H](NC(=O)c1cccnc1NCc1ccc(-c2cc3c(cn2)ncn3C)s1)c1ccc(F)cc1` [Example 2.6, (S)-N-(1-(4-fluorophenyl)ethyl)-2-(((5-(1-methyl-1H-imidazo [4,5-c]pyridin-6-yl)thiophen-2-yl)methyl)amino)nicotinamide], the pEC50 is below 5.00.

As to `Cc1ccc(NC(=O)c2cccnc2NCc2ccc(-c3ccc4ncnc(N)c4c3)s2)cc1F` [Example 3.50, 2-({[5-(4-aminoquinazolin-6-yl)thiophen-2-yl]methyl}amino)-N-(3-fluoro-4-methylphenyl) pyridine-3-carboxamide (TFA salt)], the pEC50 was below 5.00.

Consider `C[C@H](NC(=O)c1cccnc1NCc1ccc(-c2ccc3nc(N)sc3c2)s1)c1ccc(F)cc1` [Example 2.22, (S)-2-(((5-(2-aminobenzo[d]thiazol-6-yl)thiophen-2-yl)methyl)amino)-N-(1-(4-fluorophenyl)ethyl) nicotinamide], for which the pEC50 is below 5.00.

On to `Nc1ncnc2ccc(-c3ccc(CNc4ncccc4C(=O)NCc4cncc(F)c4)s3)cc12` [Example 3.65, 2-({[5-(4-aminoquinazolin-6-yl)thiophen-2-yl]methyl}amino)-N-[(5-fluoropyridin-3-yl)methyl] pyridine-3-carboxamide (TFA salt)], for which the pEC50 was 5.00 to 6.00.

For `COCCNC(=O)c1cccnc1NCc1ccc(-c2ccc3ncnc(N)c3c2)s1` [Example 3.35, 2-({[5-(4-aminoquinazolin-6-yl)thiophen-2-yl]methyl}amino)-N-(2-methoxyethyl)pyridine-3-carboxamide (TFA salt)], the pEC50 is 5.00 to 6.00.

On to `Nc1ncnc2ccc(-c3ccc(CNc4ncc(Br)cc4S(=O)(=O)NCc4ccc(F)c(F)c4)s3)cc12` [Example 20.1, 2-(((5-(4-aminoquinazolin-6-yl)thiophen-2-yl)methyl)amino)-5-bromo-N-(3,4-difluorobenzyl)pyridine-3-sulfonamide], for which the pEC50 is below 5.00.

Regarding `C[C@H](NC(=O)c1cccnc1NCc1ccc(-c2ccc3ncnc(NCCO)c3c2)s1)c1ccc(F)cc1` [Example 2.14, (S)-N-(1-(4-fluorophenyl)ethyl)-2-(((5-(4-(2-hydroxyethylamino)quinazolin-6-yl)thiophen-2-yl)methyl)amino)nicotinamide], the pEC50 was 5.00 to 6.00.
